Data as given in patent US12533321B2, “Polypeptide formulations for oral delivery” (Bhami's Research Laboratory, Pvt. Ltd., priority 2022, dated 2026).
Where two headings read alike, the source gives them in different places.

Key:
[1] = Pharmacokinetics of Octreotide in albumin crystal sugar truffle shell vs IV, plasma Octreotide by ELISA; format: in vivo, Wistar Rats; conditions: 0.1 mg
Excerpt: Rats in the oral treatment group was fasted overnight. […] The time of dosage of each animal was noted. […] Biosystems protocol.

[2] = Pharmacokinetics of Semaglutide in albumin crystal sugar truffle shell vs SC, plasma Semaglutide by ELISA; format: in vivo, Wistar Rats; conditions: 0.1 mg
Procedure: The semaglutide was processed to prepare albumin microparticles containing semaglutide according to the procedure mentioned under Example 5. The microparticle of albumin crystals containing semaglutide was then lyophilized after washing with cold isopropanol.
Pharmacokinetic analysis was conducted in male Wistar Rats weighing 150 to 250 grams for 1 day. Rats in the oral treatment group was fasted overnight. […] The time of dosage of each animal was noted. […] An antibody, anti-Semaglutide was pre-coated onto a 96-well plate. […] The intensity of the yellow color is proportional to the Semaglutide amount bound on the plate.

[3] = minipig, in vivo, iv
Procedure: Pharmacokinetic analysis was conducted in Female Minipigs weighing 12±1 kg for 2 days. Pigs in the treatment group was fasted overnight prior to the test sample administration. All the test animals in the treatment groups were administered with respective test formulation to the pre-designated animals. The time of dosage of each animal was noted. Blood samples were collected at aforementioned time points 0 min, 5 min, 30 min 1 hr, 4 hrs, 12 hrs, 24 hrs, and 48 hrs into an EDTA-blood collection tubes for the separation of plasma to determine insulin levels by ELISA. Plasma samples collected at different time points were analyzed by ELISA kit according to ABBEXA protocol. This kit is based on sandwich enzyme-linked immuno-sorbent assay technology. An antibody, anti-insulin was pre-coated onto a 96-well plate. Standards, test samples, and biotin-conjugated reagent were added to the wells and incubated. The HRP-conjugated reagent was then added, and the whole plate was incubated. Unbound conjugates were removed using wash buffer at each stage. TMB substrate was used to quantify the HRP enzymatic reaction. After TMB substrate was added, only wells that contain sufficient INS will produce a blue colored product, which then changes to yellow after adding the acidic stop solution. The intensity of the yellow colour is proportional to the INS amount bound on the plate. The Optical Density (OD) was measured spectrophotometrically at 450 nm in a microplate reader, from which the concentration of INS can be calculated.
(§1) Insulin was analyzed in plasma using a specific enzyme linked immunosorbent assay (ELISA). Pharmacokinetic endpoints were determined using noncompartmental methods using PK Solutions software. AUC was approximated using the trapezoidal rule on the observed concentrations. C max for each Insulin dose was derived as the maximum of all valid concentrations, and t max was then determined as the corresponding time point to C max. The terminal elimination rate constant (λ z) was estimated by log-linear regression on the terminal part of the concentration-time curve, and t ½ was then calculated as t ½=ln 2/λz.

[4] = minipig, in vivo, iv; remark: listed apart in the source
Procedure: Pharmacokinetic analysis was conducted in Female Minipigs weighing 12±1 kg for 2 days. Pigs in the treatment group was fasted overnight prior to the test sample administration. All the test animals in the treatment groups were administered with respective test formulation to the pre-designated animals. The time of dosage of each animal was noted. Blood samples were collected at aforementioned time points 0 min, 5 min, 30 min, 1 hr, 4 hrs, 12 hrs, 24 hrs, and 48 hrs into an EDTA-blood collection tubes for the separation of plasma to determine insulin levels by ELISA. Plasma samples collected at different time points were analyzed by ELISA kit according to ABBEXA protocol. This kit is based on sandwich enzyme-linked immuno-sorbent assay technology. An antibody, anti-insulin was pre-coated onto a 96-well plate. Standards, test samples, and biotin-conjugated reagent were added to the wells and incubated. The HRP-conjugated reagent was then added, and the whole plate was incubated. Unbound conjugates were removed using wash buffer at each stage. TMB substrate was used to quantify the HRP enzymatic reaction. After TMB substrate was added, only wells that contain sufficient INS will produce a blue colored product, which then changes to yellow after adding the acidic stop solution. The intensity of the yellow colour is proportional to the INS amount bound on the plate. The Optical Density (OD) was measured spectrophotometrically at 450 nm in a microplate reader, from which the concentration of INS can be calculated.
as §1

Compound: C[C@@H](O)[C@@H]1NC(=O)[C@H](CCCCN)NC(=O)[C@@H](Cc2c[nH]c3ccccc23)NC(=O)[C@H](Cc2ccccc2)NC(=O)[C@@H](NC(=O)[C@H](N)Cc2ccccc2)CSSC[C@@H](C(=O)N[C@H](CO)[C@@H](C)O)NC1=O (relative stereo) [Octreotide, L-cysteinamide, D-phenylalanyl-L-cysteinyl-L-phenylalanyl-D-tryptophyl-L-lysyl-L-threonyl-N-[2-hydroxy-1-(hydroxy-methyl)propyl]-, cyclic (2→7)-disulfide; [R-(R*,R*)]]
- Cl_pred ([1]; IV): 6.036E−06 (mg)/(ng/ml)/h
- Vss_obs ([1]; IV): 0.0001111 (mg)/(ng/ml)
- Vss_pred ([1]; IV): 0.0001107 (mg)/(ng/ml)
- Vz_obs ([1]; IV): 0.0001106 (mg)/(ng/ml)
- Vz_pred ([1]; IV): 0.0001118 (mg)/(ng/ml)
- C0 ([1]; male, Wistar, rat, in vivo, iv): 3830 ng/mL
- Cmax ([1]; male, Wistar, rat, in vivo, iv): 5390 ng/mL
- Tmax ([1]; male, Wistar, rat, in vivo, iv): 2 h
- AUC(0-inf) ([1]; male, Wistar, rat, in vivo, iv, IV, read-out: AUC 0-inf_obs): 105000 ng·h/mL
- AUC(0-inf) ([1]; male, Wistar, rat, in vivo, iv, IV, read-out: AUC 0-inf_pred): 104000 ng·h/mL
- AUC(0-t) ([1]; male, Wistar, rat, in vivo, iv, IV, read-out: AUC 0-t): 74200 ng·h/mL
- AUC(0-t) ([1]; male, Wistar, rat, in vivo, iv, IV, read-out: AUC t-inf_obs): 30500 ng·h/mL
- AUC(0-t) ([1]; male, Wistar, rat, in vivo, iv, IV, read-out: AUC t-inf_pred): 29400 ng·h/mL
- MRT inf ([1]; male, Wistar, rat, in vivo, iv, IV, read-out: MRT 0-inf_obs): 18.6 h
- MRT inf ([1]; male, Wistar, rat, in vivo, iv, IV, read-out: MRT 0-inf_pred): 18.3 h
- MRT last ([1]; male, Wistar, rat, in vivo, iv, read-out: MRT 0-t): 8.78 h
- half-life ([1]; male, Wistar, rat, in vivo, iv, read-out: t½ (converted)): 12.8 h
- level at 0 h ([1]; male, Wistar, rat, in vivo, 0 h, IV): 3830 ± 1290 ng/mL
- level at 0.25 h ([1]; male, Wistar, rat, in vivo, 0.25 h, IV): 4390 ± 559 ng/mL
- level at 0.5 h ([1]; male, Wistar, rat, in vivo, 0.5 h, IV): 3170 ± 924 ng/mL
- level at 1 h ([1]; male, Wistar, rat, in vivo, 1 h, IV): 4130 ± 1170 ng/mL
- level at 2 h ([1]; male, Wistar, rat, in vivo, 2 h, IV): 5390 ± 356 ng/mL
- level at 4 h ([1]; male, Wistar, rat, in vivo, 4 h, IV): 5150 ± 704 ng/mL
- level at 8 h ([1]; male, Wistar, rat, in vivo, 8 h, IV): 3160 ± 1390 ng/mL

Compound: CC[C@H](C)[C@H](NC(=O)[C@H](Cc1ccccc1)NC(=O)[C@H](CCC(=O)O)NC(=O)[C@H](CCCCNC(=O)COCCOCCNC(=O)COCCOCCNC(=O)CC[C@H](NC(=O)CCCCCCCCCCCCCCCCC(=O)O)C(=O)O)NC(=O)[C@H](C)NC(=O)[C@H](C)NC(=O)[C@H](CCC(N)=O)NC(=O)CNC(=O)[C@H](CCC(=O)O)NC(=O)[C@H](CC(C)C)NC(=O)[C@H](Cc1ccc(O)cc1)NC(=O)[C@H](CO)NC(=O)[C@H](CO)NC(=O)[C@@H](NC(=O)[C@H](CC(=O)O)NC(=O)[C@H](CO)NC(=O)[C@@H](NC(=O)[C@H](Cc1ccccc1)NC(=O)[C@@H](NC(=O)CNC(=O)[C@H](CCC(=O)O)NC(=O)C(C)(C)NC(=O)[C@@H](N)Cc1cnc[nH]1)[C@@H](C)O)[C@@H](C)O)C(C)C)C(=O)N[C@@H](C)C(=O)N[C@@H](Cc1c[nH]c2ccccc12)C(=O)N[C@@H](CC(C)C)C(=O)N[C@H](C(=O)N[C@@H](CCCNC(=N)N)C(=O)NCC(=O)N[C@@H](CCCNC(=N)N)C(=O)NCC(=O)O)C(C)C [Semaglutide]
- Mean Semaglutide levels ([2]; 0 h, SC): 0.00 ± 0.00 ng/mL
- AUMC 0-inf_obs ([2]; SC): 29775275.74 ng/ml * h^2
- AUMC 0-inf_pred ([2]; SC): 29434343.61 ng/ml * h^2
- AUMC 0-t ([2]; SC): 2165980.669 ng/ml * h^2
- AUMC 0-t/0-inf_obs ([2]; SC): 0.07274
- AUMC 0-t/0-inf_pred ([2]; SC): 0.07359
- AUMC t-inf_obs ([2]; SC): 27609295.07 ng/ml * h^2
- AUMC t-inf_pred ([2]; SC): 27268362.94 ng/ml * h^2
- Clast_obs ([2]; SC): 6808.65 ng/mL
- Clast_pred ([2]; SC): 6725 ng/mL
- Lambda_z ([2]; SC): 0.01894 h⁻¹
- Tlag ([2]; SC): 0 h
- Tlast ([2]; SC): 24 h
- level at 0.25 h ([2]; male, Wistar, rat, plasma, 0.25 h, SC, read-out: Mean Semaglutide levels): 11900 ± 2420 ng/mL
- level at 0.5 h ([2]; male, Wistar, rat, plasma, 0.5 h, SC, read-out: Mean Semaglutide levels): 11200 ± 1470 ng/mL
- level at 1 h ([2]; male, Wistar, rat, plasma, 1 h, SC, read-out: Mean Semaglutide levels): 13100 ± 1670 ng/mL
- level at 2 h ([2]; male, Wistar, rat, plasma, 2 h, SC, read-out: Mean Semaglutide levels): 12600 ± 2930 ng/mL
- level at 4 h ([2]; male, Wistar, rat, plasma, 4 h, SC, read-out: Mean Semaglutide levels): 10300 ± 2790 ng/mL
- level at 8 h ([2]; male, Wistar, rat, plasma, 8 h, SC, read-out: Mean Semaglutide levels): 8560 ± 1420 ng/mL
- level at 24 h ([2]; male, Wistar, rat, plasma, 24 h, SC, read-out: Mean Semaglutide levels): 6810 ± 1730 ng/mL
- MRT inf ([2]; rat, in vivo, sc, SC, read-out: MRT 0-inf_obs): 52.6 h
- MRT inf ([2]; rat, in vivo, sc, SC, read-out: MRT 0-inf_pred): 52.4 h
- MRT last ([2]; rat, in vivo, sc, read-out: MRT 0-t): 10.5 h

Compound: Human Insulin R: Humulin R (insulin human recombinant) U-100, marketed liquid formulation, given IV
- Cl_obs [3]: 0.000 (mg)/(mU/L)/h
- Cl_pred [3]: 0.000 (mg)/(mU/L)/h
- AUC 0-inf_obs ([3]; 0.347 mg): 803.478 mU/L * h
- AUC 0-inf_pred ([3]; 0.347 mg): 800.145 mU/L * h
- AUC t-inf_obs ([3]; 0.347 mg): 20.830 mU/L * h
- AUC t-inf_pred ([3]; 0.347 mg): 17.497 mU/L * h
- AUC(0-t) ([3]; 0.347 mg): 782.648 mU/L * h
- C0 ([3]; 0.347 mg): 105.903 mU/L
- Cmax ([3]; 0.347 mg): 998.596 mU/L
- MRT 0-inf_obs ([3]; 0.347 mg): 1.532 h
- MRT 0-inf_pred ([3]; 0.347 mg): 1.471 h
- MRT 0-t ([3]; 0.347 mg): 1.143 h
- Tmax ([3]; 0.347 mg): 4.8 min
- Vss_obs ([3]; 0.347 mg): 0.001 (mg)/(mU/L)
- Vss_pred ([3]; 0.347 mg): 0.001 (mg)/(mU/L)
- Vz_obs ([3]; 0.347 mg): 0.002 (mg)/(mU/L)
- Vz_pred ([3]; 0.347 mg): 0.002 (mg)/(mU/L)
- t½ ([3]; 0.347 mg): 2.873 h
- Cl_obs [4]: 0.000 (mg)/(mU/L)/h
- Cl_pred [4]: 0.000 (mg)/(mU/L)/h
- AUC 0-inf_obs ([4]; 0.347 mg): 803.478 mU/L * h
- AUC 0-inf_pred ([4]; 0.347 mg): 800.145 mU/L * h
- AUC t-inf_obs ([4]; 0.347 mg): 20.830 mU/L * h
- AUC t-inf_pred ([4]; 0.347 mg): 17.497 mU/L * h
- AUC(0-t) ([4]; 0.347 mg): 782.648 mU/L * h
- C0 ([4]; 0.347 mg): 105.903 mU/L
- Cmax ([4]; 0.347 mg): 998.596 mU/L
- MRT 0-inf_obs ([4]; 0.347 mg): 1.532 h
- MRT 0-inf_pred ([4]; 0.347 mg): 1.471 h
- MRT 0-t ([4]; 0.347 mg): 1.143 h
- Tmax ([4]; 0.347 mg): 4.8 min
- Vss_obs ([4]; 0.347 mg): 0.001 (mg)/(mU/L)
- Vss_pred ([4]; 0.347 mg): 0.001 (mg)/(mU/L)
- Vz_obs ([4]; 0.347 mg): 0.002 (mg)/(mU/L)
- Vz_pred ([4]; 0.347 mg): 0.002 (mg)/(mU/L)
- t½ ([4]; 0.347 mg): 2.873 h
